Results reported in PubChem BioAssay (NCI).
“And” between values parts separate entries of the source, which are not always exact repeats. Equal entries are not always repeated.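 Compound exposure: 48 hours, 5 concentrations, 96-well plates. The concentration for 50% growth inhibition is given as GI50. TGI marks complete inhibition of growth.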

Legend:
Assay in all cases: NCI-60 cell line screen, 48 h
SK-MEL-2 melanoma = tested on: SK-MEL-2 melanoma
SF-295 CNS = tested on: SF-295 CNS
NCI-H522 lung = tested on: NCI-H522 lung
HCT-116 colon = tested on: HCT-116 colon
IGROV1 ovarian = tested on: IGROV1 ovarian
SR leukemia = tested on: SR leukemia
OVCAR-3 ovarian = tested on: OVCAR-3 ovarian
ACHN renal = tested on: ACHN renal
MDA-MB-231 breast = tested on: MDA-MB-231 breast
NCI-H23 lung = tested on: NCI-H23 lung

Row | Compound | TGI (SK-MEL-2 melanoma) | TGI (SF-295 CNS) | TGI (NCI-H522 lung) | TGI (HCT-116 colon) | TGI (IGROV1 ovarian) | TGI (SR leukemia) | TGI (OVCAR-3 ovarian) | TGI (ACHN renal) | TGI (MDA-MB-231 breast) | TGI (NCI-H23 lung) | GI50 (SK-MEL-2 melanoma) | GI50 (SF-295 CNS) | GI50 (NCI-H522 lung) | GI50 (HCT-116 colon) | GI50 (IGROV1 ovarian) | GI50 (SR leukemia) | GI50 (OVCAR-3 ovarian) | GI50 (ACHN renal) | GI50 (MDA-MB-231 breast) | GI50 (NCI-H23 lung)
1 | OC(COc1ccccc1)CN1CCCCC1 (centres undefined) | > 100 µM | > 100 µM | > 100 µM | > 100 µM | > 100 µM | > 100 µM | > 100 µM | > 100 µM | > 100 µM | > 100 µM |  |  |  |  |  |  |  |  |  | 
2 | O=C(Nc1ccc2c(c1)OCCO2)C(=O)c1c[nH]c2ccccc12 | 32.9 µM | 10.6 µM | 16.3 µM | > 20.5 µM | > 72.4 µM | > 46.7 µM | 4.68 µM | > 100 µM | 14.7 µM | 26.7 µM | 2.62 µM | 1.33 µM | 0.536 µM | 1.25 µM | 3.09 µM | 0.268 µM | 1.29 µM | 5.19 µM | 1.37 µM | 1.44 µM
3 | COc1cc(-c2nccc3cc4c(cc23)OCO4)cc(OC)c1OC | > 100 µM | 14.2 µM | 27.4 µM | > 100 µM | > 100 µM |  | 4.72 µM | > 100 µM | > 100 µM | > 100 µM | 3.08 µM | 2.03 µM | 2.33 µM | 4.56 µM | 8.92 µM |  | 2.09 µM | 9.92 µM | 16.1 µM | 4.73 µM
4 | COc1cc(Nc2ncnc(Nc3ccc4c(n3)NC(=O)C(C)(C)O4)n2)cc(OC)c1OC | > 100 µM | > 100 µM | 11.2 µM | > 100 µM | 1.72 µM | > 100 µM | > 100 µM | 23.7 µM | > 100 µM | > 100 µM | > 100 µM | 0.754 µM | 0.625 µM | 3.95 µM | 0.247 µM | 2.24 µM | 3.46 µM | 0.16 µM | 1.33 µM | 2.59 µM
5 | CCCCN1C(=O)/C(=c2\sc3n(c2=O)C2C(NN=3)N(CC)C(=O)N2CC)c2ccccc21 (centres undefined) | 5.75 µM | 2.26 µM | 3.44 µM |  | 3.6 µM |  |  |  | 3.74 µM | > 35 µM | 1.47 µM | 0.456 µM | 0.508 µM |  | 0.764 µM | 0.36 µM |  |  | 1.38 µM | 1.77 µM
6 | Cn1cncc1-c1c(F)cncc1NC(=O)c1c(N)nn2cc(F)cnc12 | 0.397 µM | 6.61 µM | 19.8 µM | 16.3 µM | 13.8 µM | 2.54 µM | 2.29 µM | > 100 µM | > 100 µM | 1.34 µM | 0.0751 µM | 0.625 µM | 3.46 µM | 2.07 µM | 2.54 µM | 0.206 µM | 0.407 µM | 0.422 µM | 4.72 µM | 0.093 µM
7 | CN(C)CCCCCNc1c2ccccc2nc2cccc([N+](=O)[O-])c12 | 0.00257 µM |  | 0.0029 µM and 0.00186 µM | 0.012 µM | 0.00655 µM | 0.00697 µM and > 0.0278 µM | 0.00504 µM | 0.00325 µM | 0.00202 µM | 0.00344 µM and 0.00234 µM |  | 0.0097 µM | 0.00154 µM and 0.000466 µM | 0.00583 µM | 0.00621 µM | 0.000559 µM |  | 0.00374 µM |  | 0.00162 µM
8 | O=C(CN(/C=C/C(=O)C(F)(F)F)c1ccccc1)c1ccc(Cl)cc1 | 43.9 µM | 48.2 µM | 35.4 µM | 24.5 µM | 43.8 µM |  | 46.7 µM | 56.3 µM | 33.3 µM | 35.4 µM | 19.2 µM | 18.8 µM | 14.5 µM | 12 µM | 15.5 µM |  | 21.6 µM | 21.7 µM | 16.5 µM | 17.1 µM
9 | COc1cc(CN(c2ccc(C)cc2)C2OC(=O)c3ccccc32)cc(OC)c1OC (centres undefined) | > 100 µM | > 100 µM | 4.24 µM | > 100 µM | > 100 µM |  | 13.7 µM | > 100 µM | > 100 µM |  | 0.487 µM | 0.322 µM | 0.47 µM | 0.501 µM | 1.29 µM |  | 0.328 µM | 3.21 µM | 0.846 µM | 0.427 µM
10 | Nc1nc2c(ccc3ccccc32)s1 |  | > 100 µM | > 100 µM | > 100 µM | > 100 µM |  | > 100 µM | > 100 µM | > 100 µM | > 100 µM |  | > 100 µM | > 100 µM | > 100 µM | > 100 µM |  | 43.4 µM | > 100 µM | > 100 µM | > 100 µM
11 | C[C@H](NC(=O)c1c(C(F)F)nn(C)c1Oc1cccc(C(F)(F)F)c1)c1ccc(C(=O)O)cc1 | > 100 µM | > 100 µM | > 100 µM | > 100 µM | > 100 µM |  | > 100 µM | > 100 µM | > 100 µM | > 100 µM | > 100 µM | > 100 µM | > 100 µM | > 100 µM | > 100 µM |  | > 100 µM | > 100 µM | > 100 µM | > 100 µM
12 | CC1=C(C(=O)Nc2ccccc2)C(c2cc(Cl)cc(Cl)c2)C(C(=O)Nc2ccccc2)=C(C)N1 | 25.8 µM | 28.8 µM | 13.3 µM | 21.6 µM | 41.9 µM | 12.6 µM | 22.1 µM | 47.2 µM |  | 19.1 µM |  |  |  |  |  |  |  |  |  | 
13 | COc1cc2nc(-c3cccc4cccnc34)nc(NC3CCN(Cc4ccccc4)CC3)c2cc1OC | 3.53 µM | 3.09 µM | 3.98 µM | 0.338 µM | 2.31 µM |  | 3.08 µM | 2.08 µM | 2.75 µM | 3.11 µM | 1.68 µM | 1.44 µM | 1.45 µM | 0.158 µM | 0.93 µM |  | 1.52 µM | 0.773 µM | 1.36 µM | 1.37 µM
14 | O=C1Nc2ccccc2/C1=C/c1cn(CC(O)Cn2cc(/C=C3\C(=O)Nc4ccccc43)c3ccccc32)c2ccccc12 (centres undefined) | 3.49 µM | 3.28 µM |  | 4.13 µM | 1.9 µM |  | 3.3 µM | 3.91 µM | 2.71 µM | 3.36 µM | 1.77 µM | 1.66 µM |  | 1.66 µM | 0.477 µM |  | 1.65 µM | 1.63 µM | 1.27 µM | 1.57 µM
